Test results: patent US5998594A, “Self-assembling, chromogenic receptors for the recognition of medically important substrates and their method of use” (University of Pittsburgh of the Commonwealth System of …, priority 1994, dated 1999)

What was measured:
[1] = UV-vis titration (ΔA550) with glutaric acid in CHCl3; format: binding
Description: FIG. 3 discloses the change in the visible absorption spectrum of Cu(1)2^+ BF4^- upon addition of glutaric acid in CHCl3 [Cu(1)2^+ BF4^- ]=0.106 mM, [glutaric acid]=0-0.5 mM.
FIG. 4 discloses the change in the visible absorption spectrum of [Cu(L)2^+ BF4^- ] upon addition of glutaric acid in CHCl3. [Cu(L)2^+ BF4^- ]=0-0.125 mM [glutaric acid]=0-0.40 mM.
(§1) Complexation of Receptor 1 with Dicarboxylic Acids. Receptor 1 is a bis(acylaminopyridine) receptor and as such was expected to form strong bidentate interactions with dicarboxylic acids in chloroform. This was indeed the case, as 1 was found by NMR to bind glutaric acid with an association constant of 3.6×10^4 M^-1. Large changes in proton chemical shifts of 1 indicate that the dicarboxylic acid is hydrogen bonded simultaneously to the two acylaminopyridines moieties. […] The contribution of the phenanthroline to binding is uncertain, but it appears to play only a minor role; no protons on the phenanthroline ring shifted more than 0.014 ppm during the course of the titration. […] The stoichiometry of the complexes was 2:1 as determined by the concentration of dicarboxylic acid at which saturation of the receptor was found and independently determined by a Job's plot. A Job's plot is used to measure stoichiometry based on continuous variations of constant concentrations. Binding was most conveniently followed by UV-vis spectroscopy (ΔA550) and was checked against NMR results for pimelic acid and glutaric acid. The binding data was analyzed by assuming that two independent and equal bidentate binding sites are interacting with the substrate. In this way a single association constant is obtained that represents the strength of binding of one of the receptor binding sites with one substrate. […] An exception was N-Cbz-glutamic acid, which is understandable because there are several diastereotopic complexes present (vide infra), each with a different Ka.
(§2) From comparison of FIG. 3 with FIG. 4 which is a change in the visible absorption spectrum of Cu(L)2^+ BF4^- upon addition of glutaric acid, it is clear that the bis-dicarboxylic acid receptor, Cu(1)2^+ BF4^-, is more chromogenic than a mono-dicarboxylic acid receptor, Cu(L)2^+ BF4^-. [drawing 1] The relative change in A550 is 3-4 times greater for Cu(1)2^+ BF4^- than for Cu(L)2^+ BF4^-. A summary of the spectral changes that occur upon complex formation are present in Table 2 below. […]
The origin of the chromogenic effect is definitely a direct result of the bidentate binding of dicarboxylic acids to the receptors. Addition of large excesses of monocarboxylic acids (acetic or trifluoroacetic) to a CHCl3 solution of either Cu(I)-based receptor leads to only minor changes in the absorbance spectrum. […]

[2] = UV-vis titration (ΔA550) with N-Cbz-glutamic acid in CHCl3; format: binding
Source text: Complexation of Receptor 1 with Dicarboxylic Acids. Receptor 1 is a bis(acylaminopyridine) receptor and as such was expected to form strong bidentate interactions with dicarboxylic acids in chloroform. This was indeed the case, as 1 was found by NMR to bind glutaric acid with an association constant of 3.6×10^4 M^-1. Large changes in proton chemical shifts of 1 indicate that the dicarboxylic acid is hydrogen bonded simultaneously to the two acylaminopyridines moieties. […] The contribution of the phenanthroline to binding is uncertain, but it appears to play only a minor role; no protons on the phenanthroline ring shifted more than 0.014 ppm during the course of the titration. […] The stoichiometry of the complexes was 2:1 as determined by the concentration of dicarboxylic acid at which saturation of the receptor was found and independently determined by a Job's plot. A Job's plot is used to measure stoichiometry based on continuous variations of constant concentrations. […] The binding data was analyzed by assuming that two independent and equal bidentate binding sites are interacting with the substrate. […]
In the binding mode proposed in FIG. 5, the structure of the 2:1 complex of glutaric acid with Cu(1)2^+ BF4^- is chiral, similar to a double helix. […] This complicates the analysis of binding because six possibly different binding constants need to be evaluated. […]

[3] = UV-vis titration (ΔA550) with pimelic acid in CHCl3; format: binding
Source text: as §1
(§3) Also reported in Table 2 are the λmax and the relative change in the absorptivity at 550 nm for each substrate/receptor combination. The changes in the absorption spectra are definitely substrate dependent. For example, complexation of pimelic acid results in a less pronounced increase in the shoulder near the red edge and a smaller blue shift in λmax (for Cu(1)2^+ BF4^-,λmax =445 nm) than complexation of the 5-carbon acids, glutaric and N-Cbz-glutamic. […]

[4] = NMR titration with glutaric acid; format: binding
Source text: (§4) Complexation of Receptor 1 with Dicarboxylic Acids. Receptor 1 is a bis(acylaminopyridine) receptor and as such was expected to form strong bidentate interactions with dicarboxylic acids in chloroform. This was indeed the case, as 1 was found by NMR to bind glutaric acid with an association constant of 3.6×10^4 M^-1. Large changes in proton chemical shifts of 1 indicate that the dicarboxylic acid is hydrogen bonded simultaneously to the two acylaminopyridines moieties. […] The contribution of the phenanthroline to binding is uncertain, but it appears to play only a minor role; no protons on the phenanthroline ring shifted more than 0.014 ppm during the course of the titration. […] The stoichiometry of the complexes was 2:1 as determined by the concentration of dicarboxylic acid at which saturation of the receptor was found and independently determined by a Job's plot. A Job's plot is used to measure stoichiometry based on continuous variations of constant concentrations. Binding was most conveniently followed by UV-vis spectroscopy (ΔA550) and was checked against NMR results for pimelic acid and glutaric acid. The binding data was analyzed by assuming that two independent and equal bidentate binding sites are interacting with the substrate. In this way a single association constant is obtained that represents the strength of binding of one of the receptor binding sites with one substrate. […]

[5] = air stability; format: physicochemical; details: Cu(I) complex
[6] = NMR titration with pimelic acid; format: binding
Source text: as §4

[7] = complexation with dicarboxylic acids in CHCl3 (UV-vis, NMR, Job's plot); format: binding
Source text: as §1, §2

[8] = UV-vis titration (ΔA550) with 1,3-phenylenediacetic acid in CHCl3; format: binding
Source text: as §1, §3

[9] = CHCl3, UV-vis ΔA550, per binding site

Row | SMILES | Binding Constant (Ka) UV-vis ([1]; glutaric acid, CHCl3, UV-vis ΔA550, per binding site) [M⁻¹] | relative change in A550, compared with Cu(L)2^+ BF4^- ([1]; glutaric acid, FIG. 3 vs FIG. 4) | % Increase ( = 550 nm) ([1]; glutaric acid, absorptivity at 550 nm) [%] | color change upon complexation ([1]; two equivalents of glutaric acid) | Binding Constant (Ka) UV-vis ([2]; CHCl3, UV-vis ΔA550, several diastereomeric complexes, all Ka assumed equal) [M⁻¹] | % Increase ( = 550 nm) ([2]; absorptivity at 550 nm) [%] | spectral change relative to the other dicarboxylic acids [3] | Binding Constant (Ka) UV-vis [3, 9] [M⁻¹] | % Increase ( = 550 nm) ([3]; absorptivity at 550 nm) [%] | Binding Constant (Ka) NMR [4] [M⁻¹] | air stability [5] | Binding Constant (Ka) NMR [6] [M⁻¹] | positive cooperativity in binding of second equivalent of dicarboxylic acid [7] | color change on binding ([7]; each dicarboxylic acid of Table 1) | spectral change relative to the other dicarboxylic acids [8] | Binding Constant (Ka) UV-vis [8, 9] [M⁻¹] | % Increase ( = 550 nm) ([8]; absorptivity at 550 nm) [%] | association constant ([4]; uncoordinated receptor, chloroform) [M⁻¹] | receptor strength for dicarboxylic acids ([7]; uncoordinated ligand)
1 | Cc1cccc(NC(=O)c2ccc(-c3ccc4ccc5ccc(-c6ccc(C(=O)Nc7cccc(C)n7)cc6)nc5c4n3)cc2)n1.Cc1cccc(NC(=O)c2ccc(-c3ccc4ccc5ccc(-c6ccc(C(=O)Nc7cccc(C)n7)cc6)nc5c4n3)cc2)n1.F[B-](F)(F)F.[Cu+] [Cu(1)2^+ BF4^-] | 78000 | 3-4 times | 101 | obvious color change from pale orange to bright red | 40000 | 105 | smallest changes in the spectrum | 17000 | 62 | 71000 | air stable | 40000 | not observed | distinct color change from pale orange to bright red | largest change | 35000 | 111 | – | –
2 | Cc1cccc(NC(=O)c2ccc(-c3ccc4ccc5ccc(-c6ccc(C(=O)Nc7cccc(C)n7)cc6)nc5c4n3)cc2)n1 [Receptor 1] | – | – | – | – | – | – | – | – | – | – | – | – | – | – | – | – | – | 36000 | good receptor for dicarboxylic acids
